Data reported in the NIST ThermoML archive (doi:10.1016/j.fluid.2014.07.015).
± gives the expanded uncertainty stated by the source.

Conditions: 101.33 kPa, Liquid, Vibrating tube method

Row | SMILES | mass density (278.15 K) | mass density (283.15 K) | mass density (288.15 K) | mass density (293.15 K) | mass density (298.15 K) | mass density (303.15 K) | mass density (308.15 K) | mass density (313.15 K) | mass density (318.15 K) | mass density (323.15 K) | mass density (328.15 K) | mass density (333.15 K) | mass density (338.15 K) | mass density (343.15 K) | mass density (348.15 K) | mass density (353.15 K)
1 | CCCCn1cc[n+](C)c1C.O=S(=O)([N-]S(=O)(=O)C(F)(F)F)C(F)(F)F | 1437.39 ± 0.29 kg/m3 | 1432.61 ± 0.28 kg/m3 | 1427.91 ± 0.28 kg/m3 | 1423.31 ± 0.28 kg/m3 | 1418.69 ± 0.28 kg/m3 | 1414.07 ± 0.28 kg/m3 | 1409.46 ± 0.28 kg/m3 | 1404.86 ± 0.27 kg/m3 | 1400.25 ± 0.27 kg/m3 | 1395.67 ± 0.27 kg/m3 | 1391.1 ± 0.27 kg/m3 | 1386.54 ± 0.27 kg/m3 | 1381.98 ± 0.27 kg/m3 | 1377.44 ± 0.27 kg/m3 | 1372.92 ± 0.26 kg/m3 | 1368.39 ± 0.26 kg/m3
2 | CCCC[P+](C)(CCCC)CCCC.O=S(=O)([N-]S(=O)(=O)C(F)(F)F)C(F)(F)F | 1270.8 ± 1.4 kg/m3 | 1266.52 ± 1.4 kg/m3 | 1262.25 ± 1.4 kg/m3 | 1257.99 ± 1.4 kg/m3 | 1253.72 ± 1.4 kg/m3 | 1249.58 ± 1.4 kg/m3 | 1245.46 ± 1.4 kg/m3 | 1241.32 ± 1.4 kg/m3 | 1237.2 ± 1.4 kg/m3 | 1233.09 ± 1.4 kg/m3 | 1228.98 ± 1.4 kg/m3 | 1224.88 ± 1.3 kg/m3 | 1220.79 ± 1.3 kg/m3 | 1216.71 ± 1.3 kg/m3 | 1212.65 ± 1.3 kg/m3 | 1208.59 ± 1.3 kg/m3
